# Assay results reported in US20250320557A1, “USE OF ABCF1 IN METHODS OF DIAGNOSING AND MONITORING INFLAMMATORY AND/OR AUTOIMMUNE DISEASE” (MYND Life Sciences Inc., priority 2021, published 2025).
# Tests used:
# [1] = system: ABCF1; experiment: qPCR of ABCF1 transcription in macrophage cell line RAW264.7 (dose response / time course); assay type: cell-based; conditions: 10 nM, 100 nM, 500 nM, 2 hours, normalized against GAPDH
# Method: FIG. 3 illustrates the effect of psylocibin, psylocin and their analogs on ABCF1 transcription in a macrophage cell line. Briefly, the Macrophage cell line RAW264.7 (ATCC) were grown to 80% confluency in growth media (DMEM+ 10% FBS+ glutamine). Dilutions of psylocibin, psylocin and their analogs were made at desired final concentrations for a Dose response experiment. The concentrations' used for this experiment are: 10 nM, 100 nM, 500 nM for Psilocin, Psylocibin, 4-Acetoxy-N, N-dimthyltryptamine, O-Acetyl Psilocin Fumerate, and 4-acetoxyindole. The cells were incubated for 2 hours and then harvested for total RNA, which was extracted for real time RT-PCR specific for ABCF1. Untreated cells were used as negative control and Escitalopram at 0.3 mM was used as a positive control to activate ABCF1 expression for all the experiments. ES=escitalopram; PSYB=Psylocibin; PSIC=Psilocin; DMT=4-Acetoxy-N, N-dimthyltryptamine; APF=O-Acetyl Psilocin Fumerate, and AOI=4-acetoxyindole.
# • 1. Macrophage cell line RAW264.7 (ATCC) were grown to 80% confluency in growth media (DMEM+10% FBS+glutamine). • 2. Dilutions of the drugs were made at desired final concentrations for a Dose response experiment. […]
# • 1. […] Normalized against the expression level of GAPDH, the fold change expression level of ABCF1 was calculated and tabulated for all treatment conditions.
# [2] = system: ABCF1; conditions: peripheral blood mononuclear cells of patients responding to treatment; cited from earlier work
# [3] = system: IL-4; experiment: real time RT-PCR for IL-4 in RAW macrophages treated with Escitalopram; assay type: cell-based; conditions: macrophage cell line (RAW); 0.3 mM Escitalopram, 1 hour; normalized to housekeeping gene, DMSO control
# Method: (§1) FIG. 1 illustrates that Escitalopram induces ABCF1 in a Macrophage cell line: RAW macrophages were plated at 1×10^5 cells/well and cultured for 2 days. The cells were incubated with 0.3 mM Escitalopram for 1 hour, and then harvested for total RNA, which was extracted for real time RT-PCR specific for ABCF1 and IL-4. CT values were normalized with CT value for the housekeeping gene from the DMSO control. The difference in the expression after drug treatment is consistent with polarization towards an M2-like phenotype (data were consistent in 3 separate experiments).
# [4] = system: ABCF1; experiment: real time RT-PCR for ABCF1 in RAW macrophages treated with Escitalopram; assay type: cell-based; conditions: 0.3 mM Escitalopram, 1 hour
# Method: as §1
Compound,effect on ABCF1 transcription [1],ABCF1 transcription in PBMCs [2],induction of IL-4 [3],ABCF1 induction (in words) ([4]; RAW macrophages),"induction of ABCF1 ([4]; macrophage cell line (RAW), normalized to housekeeping gene, DMSO control)"
"CN(C)CCc1c[nH]c2cccc(OP(=O)(O)O)c12 [psylocibin, Psylocibin]",upregulate ABCF1 transcription,,,,
CN(C)CCC[C@@]1(c2ccc(F)cc2)OCc2cc(C#N)ccc21 [Escitalopram],,increased the transcription of a single gene: ABCF1,approximately 5 fold,induces ABCF1,approximately 20 fold
"CN(C)CCc1c[nH]c2cccc(O)c12 [psylocin, Psilocin]",upregulate ABCF1 transcription,,,,
